Reference: paper PMC5641551, “Chemical Proteomics for Target Discovery of Head-to-Tail Cyclized Mini-Proteins” (Frontiers in Chemistry, 2017)
No end group written: not given here.

System: 14-3-3 proteins in living Jurkat cells
Assay: photo-affinity pull down on living Jurkat cells with competitor
Type: binding, human
Conditions: 2 h incubation with bait, [T20K]kB1 competitor at 60-fold molar excess, UV irradiation
Protocol: Biotin-LC-LC-labeled (ThermoFisher) peptides (1–5 nmoles) with or without (non-biotinylated) competitor ([…]) for 2 h at 4°C in the presence of protease inhibitors. UV-activation of photo-crosslinking moiety benzophenone was induced by irradiation at 360 nm on ice for 15 min (Stratalinker, Stratagene, CA, United States). Streptavidin-coated magnetic nanobeads 2–4 mg (1–3-fold excess of binding capacity to applied biotin-bait) facilitated the precipitation (Hyglos, Bernried, Germany). The binding could proceed overnight at 4°C. The supernatants were removed and the beads were washed several times, unless stated otherwise and used for SDS-PAGE, unless stated otherwise. For cyclotide experiments the following peptides were used: biotinylated [T20K]kB1 or [T20K,W23Bpa]kB1 as bait and [T20K]kB1, [T20K,W23Bpa]kB1, or R18 ([…]; Sigma Aldrich), a 14-3-3 family specific peptide inhibitor, as competitors. Generally, beads were washed with lysis buffer containing 1% (v/v) Triton-X100 and 0.2% SDS (w/v) and protease inhibitor cocktail for 3 h followed by wash with 0.12 mM phosphate buffered high saline (PBhS) pH 7.4, 1 M NaCl and 12 mM KCl, 1 mM EDTA for 2 h. Lastly, the beads were washed three times for 5 min with lysis buffer. […] Peptide-protein co-precipitations of 14-3-3 proteins and cyclotides were analyzed with GST-tagged 14-3-3β protein (0.25 μg; EnzoLifeSciences, New York, United States). […]

With “CGETCVGGTCNTPGCKCSWPVCTRNGLPV (also: bicyclic or more (positions not given here)) [[T20K]kB1, synthetic cyclotide drug candidate, Thr20 to Lys mutant of kalata B1]” the “retention of labeled 14-3-3 proteins on affinity beads in presence of competitor” value was “competitively reduced”.
